Patent US20230114627A1, “COMPOSITION COMPRISING A METAL ASCORBO-CAMPHORATE COMPOUND AND METHOD FOR PREVENTION AND/OR TREATMENT OF PAPILLOMAVIRUS INFECTIONS” (MGB PHARMA Inc., priority 2020, published 2023)
Like-named read-outs stand apart in the source and are kept apart here.

Assays:
CaCo-2 = experiment: Transepithelial electrical resistance (TEER) of CaCo-2 monostratified epithelium; assay type: cell-based; conditions: CaCo-2, up to 500 μM, 24 hours
[1] = tested on: HEC-1A (line of endocervical origin); experiment: XTT cell viability (KIT Tox-2) on HEC-1A; assay type: cell-based; conditions: 24 hours, 1 μM to 500 μM tested
Procedure: (§1) In this example, the cell viability as a measure of non-toxicity was assessed using KIT Tox-2 XTT Sigma Aldrich, where cell viability was measured in terms of the ability of cells to degrade a colorless compound into a colored compound (mitochondrial enzymes) using color intensity as being proportional to the cell viability. Three cell lines as models were used including HEC-1A (line of endocervical origin), SiHa (vaginal cells), and CaCo-2 (intestinal cells). […] KIT Tox-2 XTT Sigma Aldrich.

Cos-7 cells = experiment: Colorimetric cell viability assay on Cos-7 cells; assay type: cell-based; conditions: 24 hours, estimated; read-out: 50% cytotoxic concentration (CC50)
Procedure: The cytotoxicity study was conducted on three types of cells: on Vero cells, on human diploid MRC5 cells (human fibroblast and embryonic type), and on Cos-7 cells. […] The latter forms crystals with the highly metabolic living cells.
In a third series of tests, the cytotoxicity of said ascorbo-camphorate on Cos-7 cells was verified. High concentrations of said ascorbo-camphorate may be required to produce an effective formulation. Therefore, the intrinsic toxicity of concentrations of said ascorbo-camphorate up to 5,000 μg/mL was evaluated using a colorimetric cell viability assay. Cos-7 cells were exposed to serial dilutions of the stock solution of said ascorbo-camphorate for 24 hours.
The viability index, or the fraction of viable cells after microbicide treatment relative to the fraction of viable cells exposed to the control condition, was calculated. Cells treated with 0.1% PBS-azide solution were used as a positive control for toxicity. The viability index, or the fraction of viable cells after treatment with the compound “AC” relative to the fraction of viable cells exposed to the natural state, was calculated. […] The 50% cytotoxic concentration (CC50) of said ascorbic camphorate was calculated using a dose-response-inhibition analysis on GraptiPad Prism v5.04 software (from GraphPad Software).

[2] = tested on: VLP-16 pseudovirions of the HPV-16 virus; conditions: for inhibitory concentration 50 (IC50) / IC50: estimated; for IC50: read-out: inhibitory concentration 50 (IC50)
Procedure: This experiment provides the data and analysis of an in vitro “AC” experimental treatment against the HPV-16 papillomavirus which was carried out by neutralizing the entry of viral pseudo particles (VLP-16) of the HPV-16 virus which was inoculated into Cos-7 cells, pretreated or treated contemporaneously to the inoculation of the VLP-16 with solutions of increasing concentrations of the said ascorbo-camphorate compound (AC).
In the case of the present tests in this example, pseudovirions were produced at the Université François Rabelais de Tours (France), under the direction of Professor A. Touzet. In brief, the VLP-16 virus pseudo particles or pseudovirions or VLPs were produced by transfection of purified plasmids containing the L1 and L2 structural proteins of the HPV-16 capsomers, and carrying a gene encoding the luciferase marker gene, into cell culture of the 293-cell line. VLP-16s were collected by nuclear lysis, with purification by […] gradient ultracentrifugation.
The positive control for the neutralization assay as disclosed herein used purified VLP-16 inoculum pre-incubated with purified antibodies against HPV (incubation for 1 hour of said VLP nuclear lysate in a solution of anti-HPV antibodies in DMED culture medium). These anti-HPV antibodies served as a positive control in the plaque assay for neutralization of Cos-7 cell infection by VLP-16.
Cells of the Cos-7 cell line were cultured in 96-well microplates, 5% CO2 and 98% H2O, at 37° C. Inoculation of Cos-7 cells was performed as follows: the inoculum mixture was added to the wells containing the confluent Cos-7 sheets, incubated for 72 hours at 37° C., 5% CO2 and 98% H2O, and the supernatant is washed and discarded from the mixture.
Cos-7 cells that may have internalized the luciferase-expressing VLPs were then recovered. The Cos-7 cells were then lysed; then the substrate (luciferin) of the reporter gene (luciferase) was added with dark incubation, for reading using a luminometer.
For each series, the experiments were repeated three times.
To assess pseudovirions infectivity, linear reporter gene expression and to perform titration of pseudovirions solutions, Cos-7 cells were grown (10^4 cells/well) in supplemented DMEM in 96-well plates (Thermo Fisher Scientific) in 5% CO2 at +37° C. until cell confluence was 40-50%. Cells were transduced by replacing the culture medium with fresh unsupplemented DMEM containing serial dilutions of the previously produced PsVs stock solutions and incubated at +37° C. One well containing 1 μg of the pGL4.10[luc2] vector, encoding the luciferase reporter gene, was made as a positive control and another was the cell control for background luminescence (without PsVs or reporter plasmid). After a 3 hours incubation period, 100 μL of growth medium was added to each well and the transduced Cos-7 cells were incubated for 48 h at +37° C. in 5% CO2. Then, the growth medium was removed and the transduced Cos-7 cells were washed with DPBS and incubated in the dark for 15 min in 100 μL of Pierce™ Firefly Luciferase One-Step Glow Assay (Thermo Fisher Scientific). The resulting cell lysates were harvested and transferred to white, 96-well microplates and luciferase enzyme activity was measured using the Luminoskan Ascent brand luminometer (from Thermo Fisher Scientific) after adding 50 μL of luciferin substrate to each well.
Serial dilutions of the stock solution of compound “AC” covering an appropriate concentration range were subjected to an HPV inhibition assay based on VLP-16 pseudovirions.

SiHa (vaginal cells) = experiment: XTT cell viability (KIT Tox-2) on SiHa; assay type: cell-based; conditions: 24 hours, 1 μM to 500 μM tested
Procedure: as §1

[3] = pseudovirions added simultaneously

zinc tetra-ascorbo-camphorate [C14]
effect on TEER (CaCo-2): does not affect the TEER | concentrations without toxicity to epithelial cells [1]: less than or equal to 125 μM | CC50 (Cos-7 cells): > 5150 µM | inhibition of VLP-16 internalization ([2]; contemporaneous addition, 1/10 dilution (515.5 μM)): Total inhibition | inhibition of VLP-16 penetration into Cos-7 cells ([2]; contemporaneous addition, dilution 1:10^3 (51.5 μM)): 33% | inhibitory concentration 50 (IC50) ([2]; pre-treatment of Cos-7 cells): 2.8 µg/mL | inhibition of penetration of VLP-16 into Cos-7 cells ([2]; pretreatment, compared to untreated infected controls): 30-40% | inhibition of VLP-16 internalization ([2]; pretreatment, dilution 1/10^2 (515.5 μM)): total inhibition | inhibitory concentration 50 (IC50) [2, 3]: 8.1 µg/mL | IC50 ([2]; pre-treatment of Cos-7 cells): 2.9 µM | IC50 [2, 3]: 8.3 µM | concentrations without toxicity to epithelial cells (SiHa (vaginal cells)): less than or equal to 125 μM
